Test results from PubChem BioAssay (NCI).
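48-hour exposure; five concentrations; linearly interpolated endpoints. At the GI50, growth is halved. At the TGI there is no net growth.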

Columns and labels:
Assay in all cases: NCI anticancer screen, dose series, 48 h
786-0 renal = test system: 786-0 renal
A498 renal = test system: A498 renal
ACHN renal = test system: ACHN renal
CAKI-1 renal = test system: CAKI-1 renal
CCRF-CEM leukemia = test system: CCRF-CEM leukemia
COLO 205 colon = test system: COLO 205 colon
DU-145 prostate = test system: DU-145 prostate
HCT-116 colon = test system: HCT-116 colon
HCT-15 colon = test system: HCT-15 colon
HL-60(TB) leukemia = test system: HL-60(TB) leukemia
HS 578T breast = test system: HS 578T breast
HT29 colon = test system: HT29 colon
IGROV1 ovarian = test system: IGROV1 ovarian
K-562 leukemia = test system: K-562 leukemia
M14 melanoma = test system: M14 melanoma
MALME-3M melanoma = test system: MALME-3M melanoma
MDA-MB-231 breast = test system: MDA-MB-231 breast
MDA-MB-435 = test system: MDA-MB-435
MOLT-4 leukemia = test system: MOLT-4 leukemia
NCI-H226 lung = test system: NCI-H226 lung
NCI-H522 lung = test system: NCI-H522 lung
NCI/ADR-RES ovarian = test system: NCI/ADR-RES ovarian
OVCAR-3 ovarian = test system: OVCAR-3 ovarian
OVCAR-4 ovarian = test system: OVCAR-4 ovarian
OVCAR-5 ovarian = test system: OVCAR-5 ovarian
PC-3 prostate = test system: PC-3 prostate
RPMI-8226 leukemia = test system: RPMI-8226 leukemia
SF-539 CNS = test system: SF-539 CNS
SK-MEL-2 melanoma = test system: SK-MEL-2 melanoma
SK-MEL-28 melanoma = test system: SK-MEL-28 melanoma
SK-MEL-5 melanoma = test system: SK-MEL-5 melanoma
SK-OV-3 ovarian = test system: SK-OV-3 ovarian
SN12C renal = test system: SN12C renal
SNB-19 CNS = test system: SNB-19 CNS
SNB-75 CNS = test system: SNB-75 CNS
SR leukemia = test system: SR leukemia
T-47D breast = test system: T-47D breast
TK-10 renal = test system: TK-10 renal
U251 CNS = test system: U251 CNS
UACC-257 melanoma = test system: UACC-257 melanoma
UACC-62 melanoma = test system: UACC-62 melanoma
UO-31 renal = test system: UO-31 renal

Cn1cc(-c2cc3nc(-c4c[nH]c5ccc(Cl)cc45)cc(N)n3n2)c2ccccc21 was tested. Which GI50 (786-0 renal) did it give?
The GI50 was 1.45 µM.

What about the TGI (786-0 renal) of the same compound?
Its TGI is 2.83 µM.

What about the GI50 (A498 renal) of the same compound?
The GI50 was 1.6 µM.

What about the TGI (A498 renal) of the same compound?
Its TGI is 3.37 µM.

What about the GI50 (ACHN renal) of the same compound?
The GI50 was 1.54 µM.

What about the TGI (ACHN renal) of the same compound?
Its TGI is 2.87 µM.

What about the GI50 (CAKI-1 renal) of the same compound?
The GI50 was 1.45 µM.

And the TGI (CAKI-1 renal)?
Its TGI is 2.91 µM.

What about the GI50 (CCRF-CEM leukemia) of the same compound?
Its GI50 is 3.12 µM.

What about the TGI (CCRF-CEM leukemia) of the same compound?
The TGI was 11.2 µM.

What about the GI50 (COLO 205 colon) of the same compound?
The GI50 was 1.8 µM.

What about the TGI (COLO 205 colon) of the same compound?
The TGI was 3.35 µM.

And the GI50 (DU-145 prostate)?
The GI50 was 1.84 µM.

What about the TGI (DU-145 prostate) of the same compound?
Its TGI is 3.32 µM.

What about the GI50 (HCT-116 colon) of the same compound?
The GI50 was 1.62 µM.

What about the TGI (HCT-116 colon) of the same compound?
Its TGI is 2.98 µM.

And the GI50 (HCT-15 colon)?
Its GI50 is 1.47 µM.

What about the TGI (HCT-15 colon) of the same compound?
Its TGI is 2.91 µM.

What about the GI50 (HL-60(TB) leukemia) of the same compound?
The GI50 was 2.02 µM.

And the TGI (HL-60(TB) leukemia)?
Its TGI is 4.75 µM.

What about the GI50 (HS 578T breast) of the same compound?
Its GI50 is 1.91 µM.

What about the TGI (HS 578T breast) of the same compound?
The TGI was 4.8 µM.

What about the GI50 (HT29 colon) of the same compound?
The GI50 was 1.56 µM.

What about the TGI (HT29 colon) of the same compound?
Its TGI is 2.98 µM.

And the GI50 (IGROV1 ovarian)?
Its GI50 is 1.57 µM.

And the TGI (IGROV1 ovarian)?
The TGI was 3.13 µM.

And the GI50 (K-562 leukemia)?
Its GI50 is 2.58 µM.

And the TGI (K-562 leukemia)?
Its TGI is 8.07 µM.

And the GI50 (M14 melanoma)?
The GI50 was 1.68 µM.

And the TGI (M14 melanoma)?
The TGI was 3.14 µM.

And the GI50 (MALME-3M melanoma)?
Its GI50 is 1.61 µM.

What about the TGI (MALME-3M melanoma) of the same compound?
Its TGI is 2.97 µM.

What about the GI50 (MDA-MB-231 breast) of the same compound?
Its GI50 is 1.79 µM.

And the TGI (MDA-MB-231 breast)?
The TGI was 3.23 µM.

What about the GI50 (MDA-MB-435) of the same compound?
The GI50 was 1.72 µM.

What about the TGI (MDA-MB-435) of the same compound?
Its TGI is 3.15 µM.

And the GI50 (MOLT-4 leukemia)?
The GI50 was 1.62 µM.

And the TGI (MOLT-4 leukemia)?
The TGI was 4.18 µM.

What about the GI50 (NCI-H226 lung) of the same compound?
The GI50 was 1.89 µM.

What about the TGI (NCI-H226 lung) of the same compound?
The TGI was 5.17 µM.

What about the GI50 (NCI-H522 lung) of the same compound?
Its GI50 is 1.6 µM.

What about the TGI (NCI-H522 lung) of the same compound?
The TGI was 3.23 µM.

And the GI50 (NCI/ADR-RES ovarian)?
The GI50 was 2.11 µM.

And the TGI (NCI/ADR-RES ovarian)?
Its TGI is 4.73 µM.

What about the GI50 (OVCAR-3 ovarian) of the same compound?
The GI50 was 2.08 µM.

And the TGI (OVCAR-3 ovarian)?
Its TGI is 4.39 µM.

What about the GI50 (OVCAR-4 ovarian) of the same compound?
The GI50 was 1.91 µM.

And the TGI (OVCAR-4 ovarian)?
Its TGI is 4.15 µM.

And the GI50 (OVCAR-5 ovarian)?
Its GI50 is 1.57 µM.

And the TGI (OVCAR-5 ovarian)?
The TGI was 3.04 µM.

What about the GI50 (PC-3 prostate) of the same compound?
Its GI50 is 1.64 µM.

And the TGI (PC-3 prostate)?
Its TGI is 3.14 µM.

What about the GI50 (RPMI-8226 leukemia) of the same compound?
The GI50 was 2.62 µM.

And the TGI (RPMI-8226 leukemia)?
Its TGI is 7.21 µM.

What about the GI50 (SF-539 CNS) of the same compound?
The GI50 was 1.64 µM.

What about the TGI (SF-539 CNS) of the same compound?
Its TGI is 3.06 µM.

And the GI50 (SK-MEL-2 melanoma)?
Its GI50 is 1.81 µM.

And the TGI (SK-MEL-2 melanoma)?
Its TGI is 3.54 µM.

And the GI50 (SK-MEL-28 melanoma)?
Its GI50 is 1.56 µM.

What about the TGI (SK-MEL-28 melanoma) of the same compound?
Its TGI is 2.9 µM.

What about the GI50 (SK-MEL-5 melanoma) of the same compound?
The GI50 was 1.67 µM.

What about the TGI (SK-MEL-5 melanoma) of the same compound?
Its TGI is 3.1 µM.

And the GI50 (SK-OV-3 ovarian)?
The GI50 was 1.91 µM.

What about the TGI (SK-OV-3 ovarian) of the same compound?
The TGI was 3.88 µM.

And the GI50 (SN12C renal)?
Its GI50 is 1.71 µM.

And the TGI (SN12C renal)?
Its TGI is 3.17 µM.

And the GI50 (SNB-19 CNS)?
Its GI50 is 1.68 µM.

What about the TGI (SNB-19 CNS) of the same compound?
Its TGI is 3.15 µM.

And the GI50 (SNB-75 CNS)?
Its GI50 is 1.5 µM.

And the TGI (SNB-75 CNS)?
Its TGI is 3.24 µM.

And the GI50 (SR leukemia)?
Its GI50 is 1.66 µM.

What about the TGI (SR leukemia) of the same compound?
Its TGI is 5.1 µM.

What about the GI50 (T-47D breast) of the same compound?
Its GI50 is 1.84 µM.

What about the TGI (T-47D breast) of the same compound?
The TGI was 4.14 µM.

What about the GI50 (TK-10 renal) of the same compound?
Its GI50 is 1.26 µM.

What about the TGI (TK-10 renal) of the same compound?
Its TGI is 2.58 µM.

And the GI50 (U251 CNS)?
Its GI50 is 1.7 µM.

And the TGI (U251 CNS)?
Its TGI is 3.29 µM.

And the GI50 (UACC-257 melanoma)?
The GI50 was 1.69 µM.

And the TGI (UACC-257 melanoma)?
Its TGI is 3.23 µM.

What about the GI50 (UACC-62 melanoma) of the same compound?
The GI50 was 1.63 µM.

And the TGI (UACC-62 melanoma)?
The TGI was 3.06 µM.

And the GI50 (UO-31 renal)?
Its GI50 is 1.43 µM.

And the TGI (UO-31 renal)?
Its TGI is 2.73 µM.
